Common to all, as to details: PC-3
For experiment [1], the target named is Tyrosine-protein kinase Yes (Homo sapiens) (UniProt P07947). The experiment is described as follows: Inhibition of YES in human PC3 cell lysates at 10 uM using desthiobiotin-tagged ATP probe AX9989 followed by trypsinization by LC/MS analysis.
For experiment [2], the target named is T1, Eukaryotic elongation factor 2 kinase (Homo sapiens) (UniProt O00418).
T1 sequence (whole entry): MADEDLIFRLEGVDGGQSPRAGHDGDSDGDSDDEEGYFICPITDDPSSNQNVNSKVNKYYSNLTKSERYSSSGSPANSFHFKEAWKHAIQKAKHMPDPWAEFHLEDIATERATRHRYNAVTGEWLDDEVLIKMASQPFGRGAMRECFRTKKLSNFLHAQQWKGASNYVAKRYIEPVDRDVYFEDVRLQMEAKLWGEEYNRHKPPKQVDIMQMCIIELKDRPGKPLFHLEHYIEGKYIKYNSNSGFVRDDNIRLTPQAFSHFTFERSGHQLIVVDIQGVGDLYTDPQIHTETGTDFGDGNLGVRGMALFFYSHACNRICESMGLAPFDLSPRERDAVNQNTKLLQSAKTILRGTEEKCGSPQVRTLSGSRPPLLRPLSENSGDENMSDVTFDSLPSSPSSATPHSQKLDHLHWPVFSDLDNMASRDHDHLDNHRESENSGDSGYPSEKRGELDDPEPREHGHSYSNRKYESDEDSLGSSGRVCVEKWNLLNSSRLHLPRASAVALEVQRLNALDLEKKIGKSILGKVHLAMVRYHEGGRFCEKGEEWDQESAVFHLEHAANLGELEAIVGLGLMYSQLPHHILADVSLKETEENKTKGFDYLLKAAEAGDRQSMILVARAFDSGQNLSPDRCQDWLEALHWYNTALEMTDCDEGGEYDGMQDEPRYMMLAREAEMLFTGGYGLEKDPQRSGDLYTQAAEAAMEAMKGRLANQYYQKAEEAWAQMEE
In words: Inhibition of eEF2K in human PC3 cell lysates at 10 uM using desthiobiotin-tagged ATP probe AX9989 followed by trypsinization by LC/MS analysis.

The target of experiment [3] is DNA-dependent protein kinase catalytic subunit (Homo sapiens) (UniProt P78527). In words: Inhibition of DNAPK in human PC3 cell lysates at 10 uM using desthiobiotin-tagged ATP probe AX9989 followed by trypsinization by LC/MS analysis.
For experiment [4], the target named is Cyclin-dependent kinase 5 (Homo sapiens) (UniProt Q00535). In words: Inhibition of CDK5 in human PC3 cell lysates at 10 uM using desthiobiotin-tagged ATP probe AX9989 followed by trypsinization by LC/MS analysis.
Experiment [5] addresses Serine/threonine-protein kinase ATR (Homo sapiens) (UniProt Q13535). In words: Inhibition of ATR in human PC3 cell lysates at 10 uM using desthiobiotin-tagged ATP probe AX9989 followed by trypsinization by LC/MS analysis.
Experiment [6] deals with IKK epsilon/TBK1 (Homo sapiens) (UniProt Q14164+Q9UHD2). The experiment is described as follows: Inhibition of IKKepsilon/TBK1 in human PC3 cell lysates at 10 uM using desthiobiotin-tagged ATP probe AX9989 followed by trypsinization by LC/MS analysis. The class given is protein-complex assay.
For experiment [7], the target named is Calcium/calmodulin-dependent protein kinase type II subunit gamma (Homo sapiens) (UniProt Q13555). In words: Inhibition of CaMK2gamma in human PC3 cell lysates at 10 uM using desthiobiotin-tagged ATP probe AX9989 followed by trypsinization by LC/MS analysis.
In experiment [8] the target is Serine/threonine-protein kinase WNK2 (Homo sapiens) (UniProt Q9Y3S1). In words: Inhibition of Wnk2 in human PC3 cell lysates at 10 uM using desthiobiotin-tagged ATP probe AX9989 followed by trypsinization by LC/MS analysis.
Experiment [9] concerns the target Serine/threonine-protein kinase WNK1 (Homo sapiens) (UniProt Q9H4A3). The experiment is described as follows: Inhibition of Wnk1 in human PC3 cell lysates at 10 uM using desthiobiotin-tagged ATP probe AX9989 followed by trypsinization by LC/MS analysis.
Experiment [10] has as its target T2, Serine/threonine-protein kinase TAO3 (Homo sapiens) (UniProt Q9H2K8).
T2 sequence (whole entry): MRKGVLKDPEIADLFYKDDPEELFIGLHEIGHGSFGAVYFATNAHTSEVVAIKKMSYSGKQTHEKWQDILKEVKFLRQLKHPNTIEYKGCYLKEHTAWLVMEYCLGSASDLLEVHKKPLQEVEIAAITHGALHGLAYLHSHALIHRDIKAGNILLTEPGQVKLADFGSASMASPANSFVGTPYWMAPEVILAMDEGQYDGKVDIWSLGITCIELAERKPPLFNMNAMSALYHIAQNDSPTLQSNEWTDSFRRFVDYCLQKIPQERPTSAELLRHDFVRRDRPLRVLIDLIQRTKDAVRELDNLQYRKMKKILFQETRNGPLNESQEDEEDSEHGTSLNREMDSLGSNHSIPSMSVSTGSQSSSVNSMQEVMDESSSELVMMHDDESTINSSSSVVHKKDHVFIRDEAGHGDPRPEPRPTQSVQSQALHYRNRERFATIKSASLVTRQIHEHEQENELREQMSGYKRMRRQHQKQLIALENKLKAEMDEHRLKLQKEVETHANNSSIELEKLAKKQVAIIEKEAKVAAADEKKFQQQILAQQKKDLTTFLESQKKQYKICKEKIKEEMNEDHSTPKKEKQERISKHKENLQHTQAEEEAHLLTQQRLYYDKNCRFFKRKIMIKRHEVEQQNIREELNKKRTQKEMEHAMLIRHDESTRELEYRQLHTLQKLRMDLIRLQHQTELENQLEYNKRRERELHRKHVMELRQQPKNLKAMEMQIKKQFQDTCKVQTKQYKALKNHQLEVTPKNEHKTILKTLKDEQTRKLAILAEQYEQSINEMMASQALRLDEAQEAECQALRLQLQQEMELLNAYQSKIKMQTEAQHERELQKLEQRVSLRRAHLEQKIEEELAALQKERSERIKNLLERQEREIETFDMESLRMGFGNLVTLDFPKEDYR
In words: Inhibition of TAO3 in human PC3 cell lysates at 10 uM using desthiobiotin-tagged ATP probe AX9989 followed by trypsinization by LC/MS analysis.

Experiment [11] deals with Ribosomal protein S6 kinase beta-1 (Homo sapiens) (UniProt P23443). In words: Inhibition of p70S6K in human PC3 cell lysates at 10 uM using desthiobiotin-tagged ATP probe AX9989 followed by trypsinization by LC/MS analysis.
Experiment [12] concerns the target Cyclin-dependent kinase 10 (Homo sapiens) (UniProt Q15131). In words: Inhibition of CDK10 in human PC3 cell lysates at 10 uM using desthiobiotin-tagged ATP probe AX9989 followed by trypsinization by LC/MS analysis.
Experiment [13] deals with Serine/threonine-protein kinase 26 (Homo sapiens) (UniProt Q9P289). In words: Inhibition of MST4 in human PC3 cell lysates at 10 uM using desthiobiotin-tagged ATP probe AX9989 followed by trypsinization by LC/MS analysis.
Experiment [14] concerns the target Casein kinase II subunit alpha' (Homo sapiens) (UniProt P19784). The experiment is described as follows: Inhibition of CK2alpha2 in human PC3 cell lysates at 10 uM using desthiobiotin-tagged ATP probe AX9989 followed by trypsinization by LC/MS analysis.

Cyclin-dependent kinase 10 (Homo sapiens), sequence (Q15131 whole entry): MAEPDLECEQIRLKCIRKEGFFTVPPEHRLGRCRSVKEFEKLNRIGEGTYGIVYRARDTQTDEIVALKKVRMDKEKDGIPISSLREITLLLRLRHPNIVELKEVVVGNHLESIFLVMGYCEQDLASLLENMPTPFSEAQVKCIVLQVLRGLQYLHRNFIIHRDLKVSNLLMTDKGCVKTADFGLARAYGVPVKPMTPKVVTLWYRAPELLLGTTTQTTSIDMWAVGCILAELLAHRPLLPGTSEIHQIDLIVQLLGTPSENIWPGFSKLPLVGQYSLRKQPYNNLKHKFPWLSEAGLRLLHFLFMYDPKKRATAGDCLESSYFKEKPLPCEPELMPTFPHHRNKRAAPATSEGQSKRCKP
DNA-dependent protein kinase catalytic subunit (Homo sapiens), sequence (P78527 whole entry): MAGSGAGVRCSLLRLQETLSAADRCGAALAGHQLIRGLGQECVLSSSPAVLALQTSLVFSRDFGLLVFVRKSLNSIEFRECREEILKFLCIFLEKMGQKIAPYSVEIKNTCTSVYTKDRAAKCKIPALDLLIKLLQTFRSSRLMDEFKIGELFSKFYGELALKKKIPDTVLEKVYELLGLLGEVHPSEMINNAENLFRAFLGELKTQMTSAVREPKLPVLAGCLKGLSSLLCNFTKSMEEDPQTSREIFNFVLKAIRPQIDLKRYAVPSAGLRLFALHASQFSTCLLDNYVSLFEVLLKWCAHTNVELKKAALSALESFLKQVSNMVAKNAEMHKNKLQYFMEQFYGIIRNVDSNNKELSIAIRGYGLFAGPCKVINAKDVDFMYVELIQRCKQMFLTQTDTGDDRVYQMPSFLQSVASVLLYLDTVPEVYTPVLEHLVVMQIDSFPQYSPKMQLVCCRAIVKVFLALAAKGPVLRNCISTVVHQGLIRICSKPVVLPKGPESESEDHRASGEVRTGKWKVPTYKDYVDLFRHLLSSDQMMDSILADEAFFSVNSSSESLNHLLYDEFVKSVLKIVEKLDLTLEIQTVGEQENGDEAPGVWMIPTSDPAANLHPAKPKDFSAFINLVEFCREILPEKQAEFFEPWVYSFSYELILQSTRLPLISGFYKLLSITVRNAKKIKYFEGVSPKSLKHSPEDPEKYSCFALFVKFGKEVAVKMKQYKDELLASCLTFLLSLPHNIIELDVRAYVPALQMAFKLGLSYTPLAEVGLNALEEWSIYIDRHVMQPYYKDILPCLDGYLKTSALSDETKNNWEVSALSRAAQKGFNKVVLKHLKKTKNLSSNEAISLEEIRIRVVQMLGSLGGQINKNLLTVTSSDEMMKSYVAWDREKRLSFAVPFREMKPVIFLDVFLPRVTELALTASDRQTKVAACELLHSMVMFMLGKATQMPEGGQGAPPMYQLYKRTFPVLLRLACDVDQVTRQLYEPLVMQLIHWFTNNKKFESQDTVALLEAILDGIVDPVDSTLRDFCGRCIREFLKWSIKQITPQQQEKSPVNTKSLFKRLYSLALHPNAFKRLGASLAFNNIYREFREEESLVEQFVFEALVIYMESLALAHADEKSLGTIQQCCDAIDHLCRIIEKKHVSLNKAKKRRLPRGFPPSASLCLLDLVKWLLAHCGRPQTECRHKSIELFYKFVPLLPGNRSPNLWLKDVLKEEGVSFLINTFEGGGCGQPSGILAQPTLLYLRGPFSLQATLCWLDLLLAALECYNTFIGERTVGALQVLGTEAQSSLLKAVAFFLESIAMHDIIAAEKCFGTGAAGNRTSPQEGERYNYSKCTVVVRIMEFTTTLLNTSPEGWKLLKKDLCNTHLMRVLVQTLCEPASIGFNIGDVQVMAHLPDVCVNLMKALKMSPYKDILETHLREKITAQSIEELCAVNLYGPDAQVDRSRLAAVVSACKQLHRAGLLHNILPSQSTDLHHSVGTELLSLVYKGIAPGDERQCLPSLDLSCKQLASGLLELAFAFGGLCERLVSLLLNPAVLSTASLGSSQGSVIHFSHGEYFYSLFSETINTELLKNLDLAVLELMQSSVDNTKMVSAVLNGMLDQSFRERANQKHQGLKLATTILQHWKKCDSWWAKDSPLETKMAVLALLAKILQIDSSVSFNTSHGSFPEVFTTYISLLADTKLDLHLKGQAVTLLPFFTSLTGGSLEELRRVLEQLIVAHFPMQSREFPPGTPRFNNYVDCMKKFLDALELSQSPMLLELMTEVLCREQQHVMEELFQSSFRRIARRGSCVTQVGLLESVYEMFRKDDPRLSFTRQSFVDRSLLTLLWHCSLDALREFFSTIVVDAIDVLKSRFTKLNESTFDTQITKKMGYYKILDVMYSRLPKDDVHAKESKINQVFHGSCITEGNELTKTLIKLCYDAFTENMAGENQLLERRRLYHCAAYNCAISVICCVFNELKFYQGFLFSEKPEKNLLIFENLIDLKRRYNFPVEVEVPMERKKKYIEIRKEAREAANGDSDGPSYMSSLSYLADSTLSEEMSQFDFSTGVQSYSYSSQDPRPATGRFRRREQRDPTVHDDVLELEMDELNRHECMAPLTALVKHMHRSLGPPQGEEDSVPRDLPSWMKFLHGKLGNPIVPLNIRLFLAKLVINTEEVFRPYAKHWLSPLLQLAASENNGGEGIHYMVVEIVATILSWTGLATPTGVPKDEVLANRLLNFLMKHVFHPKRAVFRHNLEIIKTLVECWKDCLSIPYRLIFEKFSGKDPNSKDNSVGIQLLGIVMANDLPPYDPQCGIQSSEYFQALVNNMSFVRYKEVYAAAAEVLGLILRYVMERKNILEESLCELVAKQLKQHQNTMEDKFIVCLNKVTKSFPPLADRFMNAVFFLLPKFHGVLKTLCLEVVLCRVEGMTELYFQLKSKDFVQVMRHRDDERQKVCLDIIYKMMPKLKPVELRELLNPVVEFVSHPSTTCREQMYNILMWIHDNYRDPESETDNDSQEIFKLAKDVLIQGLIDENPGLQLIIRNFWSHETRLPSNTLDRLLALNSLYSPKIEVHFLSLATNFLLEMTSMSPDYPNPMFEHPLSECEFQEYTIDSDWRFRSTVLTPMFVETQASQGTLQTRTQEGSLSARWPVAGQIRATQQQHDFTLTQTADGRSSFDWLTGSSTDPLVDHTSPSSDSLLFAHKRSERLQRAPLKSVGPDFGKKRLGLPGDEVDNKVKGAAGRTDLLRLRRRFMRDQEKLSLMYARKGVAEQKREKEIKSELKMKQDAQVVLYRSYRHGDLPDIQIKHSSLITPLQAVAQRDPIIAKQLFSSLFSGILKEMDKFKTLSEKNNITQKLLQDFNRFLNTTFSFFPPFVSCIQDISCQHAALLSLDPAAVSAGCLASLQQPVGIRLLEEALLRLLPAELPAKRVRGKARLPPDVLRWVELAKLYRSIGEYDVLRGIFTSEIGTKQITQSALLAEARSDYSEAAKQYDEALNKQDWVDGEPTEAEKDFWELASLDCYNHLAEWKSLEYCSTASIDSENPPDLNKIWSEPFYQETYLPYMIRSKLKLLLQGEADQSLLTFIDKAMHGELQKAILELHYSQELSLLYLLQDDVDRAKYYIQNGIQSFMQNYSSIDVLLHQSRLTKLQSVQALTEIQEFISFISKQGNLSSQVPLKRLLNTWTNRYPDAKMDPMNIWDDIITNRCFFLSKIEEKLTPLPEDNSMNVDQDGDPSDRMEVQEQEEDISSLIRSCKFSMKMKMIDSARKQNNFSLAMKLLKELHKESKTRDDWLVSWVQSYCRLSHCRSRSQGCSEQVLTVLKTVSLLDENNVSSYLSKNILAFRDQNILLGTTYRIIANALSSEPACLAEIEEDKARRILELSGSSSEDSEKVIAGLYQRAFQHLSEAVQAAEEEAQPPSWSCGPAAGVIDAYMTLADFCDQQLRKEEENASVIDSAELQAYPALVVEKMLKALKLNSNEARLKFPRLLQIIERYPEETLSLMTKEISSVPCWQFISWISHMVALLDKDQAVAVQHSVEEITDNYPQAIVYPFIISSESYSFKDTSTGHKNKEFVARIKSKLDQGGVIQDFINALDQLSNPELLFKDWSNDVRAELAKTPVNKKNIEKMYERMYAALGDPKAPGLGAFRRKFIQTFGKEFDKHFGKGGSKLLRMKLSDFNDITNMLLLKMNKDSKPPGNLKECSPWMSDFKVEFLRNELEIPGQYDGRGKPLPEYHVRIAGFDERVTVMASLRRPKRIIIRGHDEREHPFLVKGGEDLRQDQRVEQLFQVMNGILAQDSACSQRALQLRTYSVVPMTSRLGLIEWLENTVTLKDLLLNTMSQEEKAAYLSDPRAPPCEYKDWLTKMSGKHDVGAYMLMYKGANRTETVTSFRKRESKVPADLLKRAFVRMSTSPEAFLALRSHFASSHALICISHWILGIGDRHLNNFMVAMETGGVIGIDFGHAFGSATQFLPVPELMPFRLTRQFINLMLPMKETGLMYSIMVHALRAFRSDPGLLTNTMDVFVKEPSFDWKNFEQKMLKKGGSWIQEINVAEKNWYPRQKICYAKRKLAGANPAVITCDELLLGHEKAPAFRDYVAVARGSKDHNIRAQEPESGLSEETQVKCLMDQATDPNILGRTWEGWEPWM
Casein kinase II subunit alpha' (Homo sapiens), sequence (P19784 whole entry, looked up): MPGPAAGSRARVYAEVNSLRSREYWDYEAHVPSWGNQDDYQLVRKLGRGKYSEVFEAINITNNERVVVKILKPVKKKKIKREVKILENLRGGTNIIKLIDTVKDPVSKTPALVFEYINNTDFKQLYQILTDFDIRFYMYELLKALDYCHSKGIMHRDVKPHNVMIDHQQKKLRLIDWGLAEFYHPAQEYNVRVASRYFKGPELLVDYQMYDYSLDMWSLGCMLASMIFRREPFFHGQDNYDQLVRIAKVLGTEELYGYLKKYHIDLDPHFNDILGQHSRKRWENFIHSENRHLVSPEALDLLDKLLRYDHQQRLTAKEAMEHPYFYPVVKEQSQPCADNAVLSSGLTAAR
Cyclin-dependent kinase 5 (Homo sapiens), sequence (Q00535 whole entry, looked up): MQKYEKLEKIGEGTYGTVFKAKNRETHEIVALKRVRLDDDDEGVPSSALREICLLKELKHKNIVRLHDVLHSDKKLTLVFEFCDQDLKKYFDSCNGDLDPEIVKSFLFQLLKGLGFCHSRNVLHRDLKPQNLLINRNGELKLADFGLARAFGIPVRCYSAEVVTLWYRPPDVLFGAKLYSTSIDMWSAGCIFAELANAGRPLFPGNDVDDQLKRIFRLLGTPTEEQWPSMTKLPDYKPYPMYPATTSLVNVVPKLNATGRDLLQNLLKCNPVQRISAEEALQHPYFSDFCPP

Regarding `C[C@@H](NC(=O)c1ccc2nc(N[C@H]3CC[C@H](O)CC3)c3nccn3c2c1)c1ccccc1`, the inhibition in experiment [1] was under 35%; in experiment [2], under 35%; in [3] it was under 35%; in experiment [4], under 35%; in experiment [5], under 35%; in [6], 38.7%. In addition, the inhibition in [7] is under 35%; in experiment [8], under 35%; in experiment [9], under 35%; in [10], under 35%; in [11], under 35%; in [12] it was 56.2%. For the same compound, the inhibition in [13] and in experiment [14] was under 35% throughout.
In the case of `C[C@H](NC(=O)c1ccc2nc(N[C@H]3CC[C@H](O)CC3)c3nccn3c2c1)c1ccccc1`, the inhibition in experiment [1], in experiment [2], in [3], in experiment [4], in experiment [5] and in experiment [6] was under 35% each time. The inhibition in experiment [7], in [8], in experiment [9], in experiment [10], in experiment [11] and in [12] was under 35% in each case. Besides, the inhibition in experiment [13] and in experiment [14] was under 35% throughout.
Consider `O=C(NC1(c2ccc(F)cc2)CC1)c1ccc2nc(N[C@H]3CC[C@H](O)CC3)c3nccn3c2c1`, for which the inhibition in [1], in experiment [2], in [3], in [4], in [5] and in experiment [6] was under 35% throughout. The inhibition in [7], in [8], in experiment [9], in experiment [10], in experiment [11] and in experiment [12] was under 35% in each case. Moreover, the inhibition in experiment [13] and in [14] was under 35% throughout.
Consider `O=C(NC1(Cc2ccc(F)cc2)CC1)c1ccc2nc(N[C@H]3CC[C@H](O)CC3)c3nccn3c2c1`, for which the inhibition in experiment [1], in experiment [2], in [3], in experiment [4], in experiment [5] and in experiment [6] was under 35% each time. For the same compound, the inhibition in [7], in experiment [8], in experiment [9], in [10], in experiment [11] and in experiment [12] was under 35% each time. Further, the inhibition in [13] and in experiment [14] was under 35% throughout.
